From PMC10318822, “Phase 1 dose-escalation study to evaluate the safety, tolerability, pharmacokinetics, and anti-tumor activity of FCN-159 in adults with neurofibromatosis type 1-related unresectable plexiform neurofibromas” (BMC Medicine, 2023)

System: adult patients with NF1-related PN
Experiment: Phase I dose-escalation: DLT, MTD, RP2D and drug-related TEAEs (CTCAE v5.0)
Description: This is a multicenter, open-label, single-arm, non-randomized, phase I dose-escalation trial to evaluate the safety, tolerability, pharmacokinetic (PK), and anti-tumor activity of orally administered FCN-159 in adult patients with NF1 (NCT04954001). Phase I commenced with dose escalation in adult patients following a standard 3 + 3 design (Supplementary Table S1) to determine the maximum tolerated dose (MTD) of FCN-159 administered daily under fasting conditions (defined as no food or drink 1 h before and 2 h after each dose) in 28-day cycles. Study drug was dispensed at the study site and patient adherence was monitored by the records of drug dispensation and return. Patients were on treatment until PD, death, patient's voluntary withdrawal from study treatment, or study termination. The study was followed for 2 years after the last patient in. The starting dose was 4 mg, escalating in cohorts of at least three evaluable patients at 6 mg, 8 mg, and 12 mg until the MTD was determined. The starting dose in this study was determined based on available data from a phase 1a, first-in-human study of FCN-159 in patients with advanced NRAS ^mut+ melanoma at the time of study design. […] Dose expansion at a likely RP2D level enrolled approximately six patients. The highest dose level with a dose-limiting toxicity (DLT) incidence rate ≤ 33% (0/3 or 1/6 patients) was to be considered the MTD. If patients experienced grade ≥ 3 and/or unacceptable toxic events that were considered as at least possibly related to the study treatment, the study treatment was discontinued and supportive treatment was given in accordance with local treatment routines. If the toxicity returned to grade ≤ 2 within 28 days after the occurrence, and there was no progression on patients’ conditions or the investigator believed that patients could benefit from the study treatment, the original dose could be maintained or reduced after discussion with medical monitor. After completion of the dose escalation part of the study, PK, efficacy, safety, and tolerability data were analyzed to select the RP2D.
Primary endpoints of the study were the DLT incidence rate, MTD, and RP2D. Secondary endpoints included other safety assessments, imaging tumor response (complete response [CR], PR, stable disease [SD], or progressive disease [PD]), and PK parameters of FCN-159. Adverse events were graded per CTCAE v5.0.
All patients underwent a complete medical history, physical examination, Eastern Cooperative Oncology Group (ECOG) assessment, and laboratory analysis of test results. Drug-related TEAEs, serious adverse events (SAEs), TEAEs of grade ≥ 3 toxicity, and TEAEs leading to drug discontinuation were reviewed on an ongoing basis. Efficacy was assessed by radiologic scans and clinical assessment. Tumor assessments per Response Evaluation in Neurofibromatosis Schwannomatosis criteria were performed by investigators using MRI volumetric analysis every 4 cycles within the first 2 years (± 7 days) and every 6 cycles after 2 years (± 14 days) until PD, death, patient's voluntary withdrawal from study treatment, or study termination. MRI sequences of […], T1- and T2-weighted sequences were chosen and the software of Extended Brilliance Workspace, SIGNA Premier and uExceed were used for MRI volumetric analysis. The same software was used for all tumor assessments at baseline and subsequent assessed timepoints of the same patient. Pain was assessed by an 11-point numerical rating scale (NRS-11).
The sample size for the dose-escalation study was estimated to be 24 based on the 3 + 3 method. Safety was analyzed in patients who received at least one dose of FCN-159 and had at least one safety assessment. DLT was assessed in the DLT analysis set, defined as patients who were enrolled in the dose-escalation study and met the DLT evaluation criteria.

Cn1c(=O)c(F)c(Nc2ccc(I)cc2F)c2c(=O)n(C3CC3)nc(-c3cccc(NS(=O)(=O)C4CC4)c3)c21 [FCN-159]
0 n (%): Drug-related TEAE: Abdominal pain (4 mg (N = 3)) | Drug-related TEAE: Acne (4 mg (N = 3)) | Drug-related TEAE: Acne pustular (4 mg (N = 3)) | Drug-related TEAE: Alanine aminotransferase increased (4 mg (N = 3)) | Drug-related TEAE: Albumin globulin ratio decreased (4 mg (N = 3)) | Drug-related TEAE: Alopecia (4 mg (N = 3)) | Drug-related TEAE: Amylase increased (4 mg (N = 3)) | Drug-related TEAE: Anemia (4 mg (N = 3)) | Drug-related TEAE: Aortic dilatation (4 mg (N = 3)) | Drug-related TEAE: Aspartate aminotransferase increased (4 mg (N = 3)) | Drug-related TEAE: Asthenia (4 mg (N = 3)) | Drug-related TEAE: Blood alkaline phosphatase increased (4 mg (N = 3)) | Drug-related TEAE: Blood fibrinogen increased (4 mg (N = 3)) | Drug-related TEAE: Blood pressure increased (4 mg (N = 3)) | Drug-related TEAE: Breath odor (4 mg (N = 3)) | Drug-related TEAE: Constipation (4 mg (N = 3)) | Drug-related TEAE: Decreased appetite (4 mg (N = 3)) | Drug-related TEAE: Dermatitis acneiform (4 mg (N = 3)) | Drug-related TEAE: Diarrhea (4 mg (N = 3)) | Drug-related TEAE: Ejection fraction decreased (4 mg (N = 3)) | Drug-related TEAE: Electrocardiogram QT prolonged (4 mg (N = 3)) | Drug-related TEAE: Electrocardiogram abnormal (4 mg (N = 3)) | Drug-related TEAE: Folliculitis (4 mg (N = 3)) | Drug-related TEAE: Functional gastrointestinal disorder (4 mg (N = 3)) | Drug-related TEAE: Gamma-glutamyltransferase increased (4 mg (N = 3)) | Drug-related TEAE: Gingival pain (4 mg (N = 3)) | Drug-related TEAE: Hyperlipidemia (4 mg (N = 3)) | Drug-related TEAE: Hypertension (4 mg (N = 3)) | Drug-related TEAE: Hypoalbuminemia (4 mg (N = 3)) | Drug-related TEAE: Hypocalcemia (4 mg (N = 3)) | Drug-related TEAE: Hypophosphatemia (4 mg (N = 3)) | Drug-related TEAE: Hypoproteinemia (4 mg (N = 3)) | Drug-related TEAE: Left atrial enlargement (4 mg (N = 3)) | Drug-related TEAE: Menstrual disorder (4 mg (N = 3)) | Drug-related TEAE: Mitral valve incompetence (4 mg (N = 3)) | Drug-related TEAE: Mouth ulceration (4 mg (N = 3)) | Drug-related TEAE: Muscular weakness (4 mg (N = 3)) | Drug-related TEAE: Oedema peripheral (4 mg (N = 3)) | Drug-related TEAE: Prealbumin decreased (4 mg (N = 3)) | Drug-related TEAE: Pruritus (4 mg (N = 3)) | Drug-related TEAE: Sinusitis (4 mg (N = 3)) | Drug-related TEAE: Skin exfoliation (4 mg (N = 3)) | Drug-related TEAE: Tricuspid valve incompetence (4 mg (N = 3)) | Drug-related TEAE: Urinary occult blood positive (4 mg (N = 3)) | Drug-related TEAE: Urinary sediment present (4 mg (N = 3)) | Drug-related TEAE: Urinary tract infection (4 mg (N = 3)) | Drug-related TEAE: Urine ketone body present (4 mg (N = 3)) | Drug-related TEAE: Urticaria (4 mg (N = 3)) | Drug-related TEAE: Vision blurred (4 mg (N = 3)) | Drug-related TEAE: Visual acuity reduced (4 mg (N = 3)) | Drug-related TEAE: pH urine decreased (4 mg (N = 3)) | Drug-related TEAE: Abdominal pain (6 mg (N = 4)) | Drug-related TEAE: Acne pustular (6 mg (N = 4)) | Drug-related TEAE: Albumin globulin ratio decreased (6 mg (N = 4)) | Drug-related TEAE: Amylase increased (6 mg (N = 4)) | Drug-related TEAE: Anemia (6 mg (N = 4)) | Drug-related TEAE: Aortic dilatation (6 mg (N = 4)) | Drug-related TEAE: Beta globulin decreased (6 mg (N = 4)) | Drug-related TEAE: Blood creatine phosphokinase increased (6 mg (N = 4)) | Drug-related TEAE: Blood fibrinogen increased (6 mg (N = 4)) | Drug-related TEAE: Blood pressure increased (6 mg (N = 4)) | Drug-related TEAE: Capillary disorder (6 mg (N = 4)) | Drug-related TEAE: Constipation (6 mg (N = 4))
1 (33.3) n (%): Drug-related TEAE: Beta globulin decreased (4 mg (N = 3)) | Drug-related TEAE: Beta globulin increased (4 mg (N = 3)) | Drug-related TEAE: Blood bilirubin increased (4 mg (N = 3)) | Drug-related TEAE: Blood creatine phosphokinase increased (4 mg (N = 3)) | Drug-related TEAE: Blood lactate dehydrogenase increased (4 mg (N = 3)) | Drug-related TEAE: Blood urea increased (4 mg (N = 3)) | Drug-related TEAE: Blood uric acid increased (4 mg (N = 3)) | Drug-related TEAE: Capillary disorder (4 mg (N = 3)) | Drug-related TEAE: Drug eruption (4 mg (N = 3)) | Drug-related TEAE: Dyslipidemia (4 mg (N = 3)) | Drug-related TEAE: Epistaxis (4 mg (N = 3)) | Drug-related TEAE: Impetigo (4 mg (N = 3)) | Drug-related TEAE: Lipoprotein abnormal (4 mg (N = 3)) | Drug-related TEAE: Malaise (4 mg (N = 3)) | Drug-related TEAE: Pain in extremity (4 mg (N = 3)) | Drug-related TEAE: Paronychia (4 mg (N = 3)) | Drug-related TEAE: Protein urine present (4 mg (N = 3)) | Drug-related TEAE: QRS axis abnormal (4 mg (N = 3)) | Drug-related TEAE: Rash (4 mg (N = 3)) | Drug-related TEAE: Sinus arrhythmia (4 mg (N = 3)) | Drug-related TEAE: Sinus bradycardia (4 mg (N = 3)) | Drug-related TEAE: Specific gravity urine increased (4 mg (N = 3)) | Drug-related TEAE: Supraventricular extrasystoles (4 mg (N = 3)) | Drug-related TEAE: Total bile acids increased (4 mg (N = 3)) | Drug-related TEAE: pH urine increased (4 mg (N = 3))
2 (66.7) n (%): Drug-related TEAE: Immunoglobulins increased (4 mg (N = 3)) | Drug-related TEAE: Stomatitis (4 mg (N = 3)) | Drug-related TEAE: Urobilinogen urine increased (4 mg (N = 3))
2 (50.0) n (%): Drug-related TEAE: Aspartate aminotransferase increased (6 mg (N = 4)) | Drug-related TEAE: Blood bilirubin increased (6 mg (N = 4)) | Drug-related TEAE: Blood urea increased (6 mg (N = 4)) | Drug-related TEAE: Breath odor (6 mg (N = 4))
3 (100) n (%): Subjects with any drug-related TEAE (4 mg (N = 3))
1 (25.0) n (%): Drug-related TEAE: Acne (6 mg (N = 4)) | Drug-related TEAE: Alanine aminotransferase increased (6 mg (N = 4)) | Drug-related TEAE: Alopecia (6 mg (N = 4)) | Drug-related TEAE: Asthenia (6 mg (N = 4)) | Drug-related TEAE: Beta globulin increased (6 mg (N = 4)) | Drug-related TEAE: Blood alkaline phosphatase increased (6 mg (N = 4)) | Drug-related TEAE: Blood lactate dehydrogenase increased (6 mg (N = 4)) | Drug-related TEAE: Blood uric acid increased (6 mg (N = 4))
No DLT events were observed: DLT events (4 mg) | DLT events (6 mg)
